“Also recorded” adds a separate entry of the source. Like-named read-outs stand apart in the source and are kept apart here.
What was measured:
NF-kB = test: Quantification of NF-kB in liver and kidney by indirect ELISA; assay type: in vivo, mice; conditions: GAE 200 mg/kg oral 15 min after 5 Gy whole body irradiation, p < 0.05, upto 8 h
Description: Black C57BL/6 male mice weighing 28–30 g were maintained at the Institutional Animal Experimental Facility. Animals were fed according to standard chow diet having free access to food and water ad libitum. The environmental condition was maintained at room temperature (22 ± 2 °C), relative humidity (45–60%) and 12 h dark/light cycle controlled facility. In this study, mice were randomly assigned to four different groups (n = 21) i.e untreated control (UC), GAE-treated (GAE), Radiation + GAE (R + GAE), Radiation group (R). Mice fasted overnight with free access to water before being dosed. Isolated GAE from leaves was dissolved with distilled water and ethanol in (7:3 v/v) and administered orally at a dose of 200 mg/kg body weight to GAE-treated and R + GAE treated groups only. […]
Measurement of NF-kB activity was done in accordance to the manufacturer’s protocol purchased from BD-biosciences. […] After development of colour 50 µl of stop solution was added to the wells and absorbance was recorded at 490 nm. A standard curve was prepared from the data produced from the serial dilution of the pure NF-kB proteins with concentration on the x-axis (log scale) vs absorbance on the Y-axis (linear).

[1] = Biodistribution of GAE in liver, kidney, heart, spleen and brain after oral administration; assay type: in vivo, mice
Description: The Biodistribution in mice at 15 min, 30 min, 1 h, 2 h, 4 h, 8 h and 24 h after GAE administration are presented in (Fig. 2A,B). […] Moreover; no GAE peak was identified in untreated control and irradiated animals. In the GAE treated group the concentration of GAE is highest in the liver 3383.1 ± 137.79 ng/g at 1 h, 529.13 ± 102.8 ng/g in the kidney at 2 h and 283.1 ± 20.60 ng/g in the brain at 1 h after GAE administration. […] After 2 h of GAE administration its concentration decreased GAE was found in heart, spleen, and kidney up to 4 h, whereas in brain it found in low concentration up to 2 h.
Black C57BL/6 male mice weighing 28–30 g were maintained at the Institutional Animal Experimental Facility. Animals were fed according to standard chow diet having free access to food and water ad libitum. The environmental condition was maintained at room temperature (22 ± 2 °C), relative humidity (45–60%) and 12 h dark/light cycle controlled facility. In this study, mice were randomly assigned to four different groups (n = 21) i.e untreated control (UC), GAE-treated (GAE), Radiation + GAE (R + GAE), Radiation group (R). Mice fasted overnight with free access to water before being dosed. Isolated GAE from leaves was dissolved with distilled water and ethanol in (7:3 v/v) and administered orally at a dose of 200 mg/kg body weight to GAE-treated and R + GAE treated groups only. The experiment was carried out in accordance to regulation and guideline of the, Committee for the purpose of control and supervision of Experiments on animals (CPCSEA), and study was approved by Institutional Animal Experimental Committee (IAEC), Institute of Nuclear Medicine & Allied Science, Delhi, India.
Group I untreated control (UC), Group II GAE-treated (GAE), Group III Radiation + GAE (R + GAE) and Group IV Radiation (R) exposed. The GAE was administered orally 15 min post irradiation. The whole-body radiation (5 Gy) was carried out using Bhabahtron II, Telecobalt machine, Panacea medical technology, Bangalore. The mice exposed at a dose rate of 0.961 Gy/min at field 35 × 35 cm^2 and the distance maintained from the source was 80 cm.
Blood and tissues samples of mice were collected at 15 min, 30 min, 1 h, 2 h, 4 h, 8 h and 24 h after GAE administration (3mice per time). Blood was obtained from retro orbital plexus of mice and collected in heparinized eppendorf tubes, followed by centrifugation at 2500 g for 15 min. The resulting plasma layer was separated and stored in tubes at −20 °C for further analysis. Tissue samples (brain, heart, liver, kidney, and spleen) were weighed and put into the normal saline solution to remove the blood by blotting on filter paper and were minced and homogenized with physiological saline solution (1:2 w/v) thoroughly in an ice bath. The homogenates were stored at −80 °C until the analysis.
For the extraction from tissue, each aliquot (300 µL) of homogenate (liver, kidney, brain, heart & spleen) was spiked with 20 µL of the IS working solution (100 ng/mL) during analysis; homogenate was dispensed in a standing vial containing 400 µL ACN to precipitate proteins. The biological samples were swirled for 3 min and were centrifuged at 12000 rpm for 10 min at 4 °C. The obtained supernatant was tubed and dried under a stream of nitrogen at 40 °C, the sample was reconstituted with mobile phase, then and 20 µL was injected into the HPLC system.
GAE was separated on the high-performance liquid chromatography (HPLC), SPD-10A consisting of binary HPLC pump, ultraviolet detector, and a Rheodyne manual injector equipped with a 20 µl loop (Shimadzu, Japan). Separation was achieved on Kinetex Biphenyl RP 100 Å column (2.6 µm, 150 × 4.6 mm) (Phenomenex, Torrance) installed with phenyl cartridges (Phenomenex, Torrance). The system was controlled using class VP software (Shimadzu, Japan). […]

[2] = R + GAE treated group (5 Gy), 200 mg/kg b.wt oral
[3] = after GAE administration, 200 mg/kg b.wt oral

SMILES: CCOC(=O)c1cc(O)c(O)c(O)c1 [GAE, Ethyl 3,4,5-trihydroxybenzoate]
- NF-kB level/expression in liver and kidney compared to irradiated mice (NF-kB): inhibits NF-kB expression; also recorded: significant minimal expression; also recorded: significantly inhibits; also recorded: significantly reduces
- crossing of the blood-brain barrier ([1]; GAE detected in brain in both GAE and R + GAE treated groups): crosses the blood-brain barrier; also recorded: could cross the blood-brain barrier
- concentration of GAE (liver, tissue implied by context) [1, 2]: 1928.5 ± 39.63 ng/g
- kidney concentration of GAE [1, 2]: 307.77 ± 7.80 ng/g
- time up to which GAE was found in brain (low concentration) [1, 3]: up to 2 h
- time up to which GAE was found in heart, spleen and kidney [1, 3]: up to 4 h
- tissues with the highest concentration ([1]; biodistribution, 200 mg/kg b.wt oral): liver and kidney
- peak GAE concentration in liver relative to other tissues ([1]; both GAE treated and R + GAE treated groups): two fold higher
- concentration at 1 h ([1]; male, C57BL/6, mouse, brain, po, 200 mg/kg, GAE treated group, 200 mg/kg b.wt oral, read-out: concentration of GAE in the brain): 283 ± 20.6 ng/g
- concentration at 1 h ([1]; male, C57BL/6, mouse, heart, po, 200 mg/kg, GAE treated animals, 200 mg/kg b.wt oral, read-out: GAE concentration in the heart): 216 ng/g
- concentration at 1 h ([1]; male, C57BL/6, mouse, heart, po, 200 mg/kg, R + GAE group (5 Gy), 200 mg/kg b.wt oral, read-out: GAE concentration in the heart): 506 ± 39.4 ng/g
- concentration at 2 h ([1]; male, C57BL/6, mouse, kidney, po, 200 mg/kg, GAE treated group, 2 h, 200 mg/kg b.wt oral): 529 ± 103 ng/g
- concentration at 1 h ([1]; male, C57BL/6, mouse, liver, po, 200 mg/kg, GAE treated group, 200 mg/kg b.wt oral, read-out: concentration of GAE in the liver): 3380 ± 138 ng/g
- concentration at 1 h ([1]; male, C57BL/6, mouse, spleen, po, 200 mg/kg, GAE treated animals, 200 mg/kg b.wt oral, read-out: GAE concentration in the spleen): 484 ng/g
- concentration at 1 h ([1]; male, C57BL/6, mouse, spleen, po, 200 mg/kg, R + GAE group (5 Gy), 200 mg/kg b.wt oral, read-out: GAE concentration in the spleen): 522 ± 73.2 ng/g
